Among the data in ChEMBL document CHEMBL1697731, “Cheminformatics analysis of assertions mined from literature that describe drug-induced liver injury in different species” (Chem Res Toxicol, 2010) are Hepatotoxicity values, retold here.

For data set [1], the system named is Hepatotoxicity. Kind of data set: Literature-mined compound from Fourches et al multi-species drug-induced liver injury (DILI) dataset, effect in rodents. Conditions: rodentia.
The test system of data set [2] is Hepatotoxicity. Kind of data set: Literature-mined compound from Fourches et al multi-species drug-induced liver injury (DILI) dataset, effect in humans. Conditions: human.
The test system of data set [3] is Hepatotoxicity. Kind of data set: Literature-mined compound from Fourches et al multi-species drug-induced liver injury (DILI) dataset, effect in non-rodents.

With `NCCc1ccc(O)c(O)c1` [DOPAMINE], the Hepatotoxicity result in data set [1] (Liver), in data set [2] (Liver) and in data set [3] (Liver) was “drug-induced liver injury reported” each time.
For `COc1nc(C)nc(Cl)c1N=C1NCCN1` [MOXONIDINE], the values for the Hepatotoxicity result in data set [1], in data set [2] and in data set [3] were “drug-induced liver injury reported”, “no drug-induced liver injury reported” and “no drug-induced liver injury reported”, respectively.
As for `CN(C)C(=O)Oc1cccc([N+](C)(C)C)c1.[Br-]` [NEOSTIGMINE BROMIDE], the Hepatotoxicity result in data set [1] was “drug-induced liver injury reported”; in data set [2], “no drug-induced liver injury reported”; in data set [3], “no drug-induced liver injury reported”.
As for `Nc1c(CC(=O)O)cccc1C(=O)c1ccc(Br)cc1` [BROMFENAC], the Hepatotoxicity result in data set [1] was “no drug-induced liver injury reported”; in data set [2], “drug-induced liver injury reported”; in data set [3] it was “no drug-induced liver injury reported”.
Take MANGAFODIPIR TRISODIUM: the Hepatotoxicity result is listed as “no drug-induced liver injury reported” in data set [1], “drug-induced liver injury reported” in data set [2] and “no drug-induced liver injury reported” in data set [3].
With `NCCCC(N)(C(=O)O)C(F)F` (centres undefined) [EFLORNITHINE], the Hepatotoxicity entry is recorded as “drug-induced liver injury reported” in data set [1], “no drug-induced liver injury reported” in data set [2] and “no drug-induced liver injury reported” in data set [3].
With `O=C(O)c1cc(-c2ccccc2)nc2ccccc12` [CINCHOPHEN], the Hepatotoxicity result in data set [1] is listed as “no drug-induced liver injury reported”; in data set [2] it was “drug-induced liver injury reported”; in data set [3], “drug-induced liver injury reported”.
On to `CC1=C(/C=C/C(C)=C/C=C/C(C)=C/CO)C(C)(C)CCC1` [RETINOL], for which the Hepatotoxicity entry in data set [1] (Liver), in data set [2] (Liver) and in data set [3] (Liver) was “drug-induced liver injury reported” in each case.
Turning to `OC[C@@H](O)[C@@H](O)[C@H](O)[C@H](O)CO` [MANNITOL], the Hepatotoxicity entry in data set [1], in data set [2] and in data set [3] was “drug-induced liver injury reported” each time.
Take `CN(C)c1ccc(C(=C2C=CC(=[N+](C)C)C=C2)c2ccc(N(C)C)cc2)cc1.[Cl-]` [GENTIAN VIOLET]: the Hepatotoxicity result in data set [1] is “drug-induced liver injury reported”; in data set [2] it was “no drug-induced liver injury reported”; in data set [3], “no drug-induced liver injury reported”.
As to `CCOC(=O)[C@@]1(CCCCCCOc2ccc(Cl)cc2)CO1` [ETOMOXIR], the Hepatotoxicity result in data set [1], in data set [2] and in data set [3] was “drug-induced liver injury reported” in each case.
As for `CC(C)[C@@H]1NC(=O)[C@H](CCCCN)NC(=O)[C@@H](Cc2c[nH]c3ccccc23)NC(=O)[C@H](Cc2ccc(O)cc2)NC(=O)[C@@H](NC(=O)[C@H](N)Cc2ccc3ccccc3c2)CSSC[C@@H](C(=O)N[C@H](C(N)=O)[C@@H](C)O)NC1=O` [LANREOTIDE], the Hepatotoxicity entry in data set [1] is on record as “no drug-induced liver injury reported”; in data set [2], “drug-induced liver injury reported”; in data set [3] it was “no drug-induced liver injury reported”.
As for `CCn1cc(C(=O)O)c(=O)c2cc(F)c(N3CCNCC3)cc21` [NORFLOXACIN], the Hepatotoxicity result in data set [1] (Liver) is recorded as “drug-induced liver injury reported”; in data set [2] (Liver), “drug-induced liver injury reported”; in data set [3] (Liver), “no drug-induced liver injury reported”.
On to `CC(C)(C)c1ccc(C(O)CCCN2CCC(C(O)(c3ccccc3)c3ccccc3)CC2)cc1` (centres undefined) [TERFENADINE], for which the Hepatotoxicity result in data set [1] was “no drug-induced liver injury reported”; in data set [2], “drug-induced liver injury reported”; in data set [3], “no drug-induced liver injury reported”.
For the compound `C[S+](C)[O-]` [DIMETHYL SULFOXIDE], the Hepatotoxicity result in data set [1], in data set [2] and in data set [3] was “drug-induced liver injury reported” throughout.
Consider `CCN(CC)CCCC(C)Nc1ccnc2cc(Cl)ccc12` (centres undefined) [CHLOROQUINE], for which the Hepatotoxicity result in data set [1], in data set [2] and in data set [3] was “drug-induced liver injury reported” each time.
In the case of `CN(C)[C@@H]1C(O)=C(C(N)=O)C(=O)[C@@]2(O)C(O)=C3C(=O)c4c(O)ccc(Cl)c4[C@@](C)(O)[C@H]3C[C@@H]12` [CHLORTETRACYCLINE], the Hepatotoxicity result in data set [1] is recorded as “drug-induced liver injury reported”; in data set [2] it was “no drug-induced liver injury reported”; in data set [3] it was “drug-induced liver injury reported”.
Consider `CN(C)[C@@H]1C(O)=C(C(N)=O)C(=O)[C@@]2(O)C(O)=C3C(=O)c4c(O)cccc4[C@@](C)(O)[C@H]3[C@H](O)[C@@H]12` [OXYTETRACYCLINE], for which the Hepatotoxicity result in data set [1] is “drug-induced liver injury reported”; in data set [2] it was “no drug-induced liver injury reported”; in data set [3], “no drug-induced liver injury reported”.
In the case of `CCOC(=O)C1(c2ccccc2)CCN(C)CC1` [MEPERIDINE], the Hepatotoxicity entry is “no drug-induced liver injury reported” in data set [1], “drug-induced liver injury reported” in data set [2] and “no drug-induced liver injury reported” in data set [3].
As to `COc1c(N2C[C@@H]3CCCN[C@@H]3C2)c(F)cc2c(=O)c(C(=O)O)cn(C3CC3)c12` [MOXIFLOXACIN], the Hepatotoxicity result in data set [1] was “no drug-induced liver injury reported”; in data set [2], “drug-induced liver injury reported”; in data set [3], “no drug-induced liver injury reported”.
On to `CCCCc1nc(Cl)c(CO)n1Cc1ccc(-c2ccccc2-c2nn[nH]n2)cc1` [LOSARTAN], for which the Hepatotoxicity result is given as “drug-induced liver injury reported” in data set [1], “drug-induced liver injury reported” in data set [2] and “no drug-induced liver injury reported” in data set [3].
As to `CC(C)=CCN1CC[C@]2(C)c3cc(O)ccc3C[C@H]1[C@H]2C` [(+)-PENTAZOCINE], the Hepatotoxicity result in data set [1] is “drug-induced liver injury reported”; in data set [2] it was “no drug-induced liver injury reported”; in data set [3], “no drug-induced liver injury reported”.
For `CN(N=O)C(=O)N[C@@H](C=O)[C@@H](O)[C@H](O)[C@H](O)CO` [STREPTOZOCIN], the Hepatotoxicity entry in data set [1] is recorded as “drug-induced liver injury reported”; in data set [2] it was “no drug-induced liver injury reported”; in data set [3], “drug-induced liver injury reported”.
Turning to `Cc1ccnc(NS(=O)(=O)c2ccc(N)cc2)n1` [SULFAMERAZINE], the Hepatotoxicity result in data set [1] is “drug-induced liver injury reported”; in data set [2], “no drug-induced liver injury reported”; in data set [3] it was “no drug-induced liver injury reported”.
For the compound `Cc1ccc(S(=O)(=O)NC(=O)NN2CCCCCC2)cc1` [TOLAZAMIDE], the values for the Hepatotoxicity result in data set [1], in data set [2] and in data set [3] were “drug-induced liver injury reported”, “drug-induced liver injury reported” and “no drug-induced liver injury reported”, respectively.
Turning to `Cc1onc(-c2c(F)cccc2Cl)c1C(=O)N[C@@H]1C(=O)N2[C@@H]1SC(C)(C)[C@@H]2C(=O)O` [FLOXACILLIN], the values for the Hepatotoxicity result in data set [1], in data set [2] and in data set [3] were “drug-induced liver injury reported”, “drug-induced liver injury reported” and “no drug-induced liver injury reported”, respectively.
Consider `CCn1nc(C(=O)O)c(=O)c2cc3c(cc21)OCO3` [CINOXACIN], for which the values for the Hepatotoxicity entry in data set [1], in data set [2] and in data set [3] were “no drug-induced liver injury reported”, “drug-induced liver injury reported” and “no drug-induced liver injury reported”, respectively.
Take `O=C(CO)[C@@H](O)[C@H](O)[C@H](O)CO` [FRUCTOSE]: the Hepatotoxicity entry in data set [1], in data set [2] and in data set [3] was “drug-induced liver injury reported” in each case.
Consider `COc1ccccc1OCCNCC(O)COc1cccc2[nH]c3ccccc3c12` (centres undefined) [CARVEDILOL], for which the results for the Hepatotoxicity result in data set [1], in data set [2] and in data set [3] were “drug-induced liver injury reported”, “drug-induced liver injury reported” and “no drug-induced liver injury reported”, respectively.
`CCCCCCCCCC(=O)O[C@H]1CC[C@H]2[C@@H]3CCC4=CC(=O)CC[C@@H]4[C@H]3CC[C@]12C` [NANDROLONE DECANOATE]: the values for the Hepatotoxicity entry in data set [1], in data set [2] and in data set [3] were “drug-induced liver injury reported”, “no drug-induced liver injury reported” and “no drug-induced liver injury reported”, respectively.
For the compound `O=C(O)C(Cl)(Cl)Cl` [TRICHLOROACETIC ACID], the values for the Hepatotoxicity entry in data set [1], in data set [2] and in data set [3] were “drug-induced liver injury reported”, “no drug-induced liver injury reported” and “no drug-induced liver injury reported”, respectively.
For the compound `CN(C)C(=N)N=C(N)N` [METFORMIN], the Hepatotoxicity entry in data set [1] (Liver), in data set [2] (Liver) and in data set [3] (Liver) was “drug-induced liver injury reported” each time.
On to `CNCC[C@@H](Oc1ccccc1C)c1ccccc1.Cl` [ATOMOXETINE HYDROCHLORIDE], for which the Hepatotoxicity result in data set [1] is “no drug-induced liver injury reported”; in data set [2] it was “drug-induced liver injury reported”; in data set [3], “no drug-induced liver injury reported”.
